Reference: US9809560B2, “Ligands and methods for labeling biomolecules in vivo” (Albert Einstein College of Medicine, Inc., priority 2010, dated 2017)

What was measured:
[1] = Fluorogenic kinetic assay of CuAAC of 3-azido-7-hydroxy-coumarin and propargyl alcohol; conditions: 75 μM CuSO4 premixed with ligand, [ligand]:[copper] 2:1 to 6:1; within 15 min
Procedure: FIG. 1A-1C. Copper(I)-catalyzed azide-alkyne cycloaddition (CuAAC) is accelerated by Cu(I)-stabilizing ligands. (A) CuAAC of azides and terminal alkynes to form 1,4-disubstituted 1,2,3-triazoles. (B) Structures of CuAAC-accelerating ligands. (C) Conversion-time profiles of CuAAC in the presence/absence of accelerating ligands. Reaction conditions: propargyl alcohol (50 μM), 3-azido-7-hydroxy-coumarin (100 μM), CuSO4 (75 μM), 0.1 M potassium phosphate buffer (pH 7.0)/DMSO 95:5, sodium ascorbate ([…]), rt. Error bars represent the standard deviation of three replicate experiments.
Protocol for Kinetic Measurement of CuAAC of 3-azido-7-hydroxy-coumarin and Propargyl Alcohol […]
Procedure for 200 μL reactions: In a 96-well fluorescence plate, add the reagents in the following order: (1) 40 μL of 500 mM phosphate buffer pH 7.0; (2) 1.0 μL 10 mM propargyl alcohol; (3) 10 μL of DMSO; (4) 6 μL of premixed CuSO4 and ligand ([Cu]=2.5 mM); (5) 1.0 μL 20 mM coumarin-N3; (6) 20 μL of 25 mM sodium ascorbate; (7) Read fluorescence (λex=404 nm, λem=477 nm, RFU) on the Synergy plate reader.

[2] = system: zebrafish embryos; test: Imaging of fucosylated glycans in zebrafish embryos microinjected with GDP-FucAl; type: in vivo; conditions: among 120 embryos microinjected with nucleotide sugar analogues and treated with click reagents, through four days post click reaction
Procedure: Zebrafish embryos at the one-cell or two-cell stage were microinjected in the yolk with 1 nL of a 20 mM solution of GDP-FucAl (or GDP-fucose) and either rhodamine-dextran (5% w/v) or phenol red (0.1% w/v) in 0.2 M KCl as a tracer. The embryos were allowed to develop to 5 hpf, at which point they were manually dechorionated. The dechorionated embryos were cultured in E3 embryo medium at 28° C. for an additional 3 h before transferring to 1% agarose-coated 96-well plates containing 92 μL embryo medium using a fire-polished wide-bore Pasteur pipette. Alexa Fluor-488 azide (100 μM from a 1.75 mM stock in H2O) was added to each well, followed by BTTES-CuSO4 or BTTA-CuSO4 6:1 complex ([Cu]=50 μM from 2.5 mM stock). […] After mounting on a slide or 50 mm glass bottom dishes (Matek) in 1.5-3% methyl cellulose and E3 medium, the embryos were ready for imaging by confocal microscopy.
To image fucosylated glycans in zebrafish embryos, GDP-FucAl was synthesized chemoenzymatically and microinjected embryos at the one-cell stage with 20 pmol of GDP-FucAl (FIG. 4B). […] Robust labeling of the treated embryos was achieved within 1-3 min reaction (FIG. 4C), and only background fluorescence was detected for control embryos microinjected with GDP-fucose (FIG. 10). […]

**Q.** For `CC(C)(C)n1cc(CN(Cc2cn(CCOS(=O)(=O)O)nn2)Cc2cn(C(C)(C)C)nn2)nn1` [BTTES], which cycloaddition product yield [1] is on record?
**A.** Its cycloaddition product yield is greater than 50%.

**Q.** What about the “embryos with minor developmental defects” value [2] of the same compound?
**A.** Its value is “less than twelve embryos exhibited minor developmental defects”.
